Patent US10111907B2, “Methods of treating ischemia” (FATE THERAPEUTICS, INC., priority 2011, dated 2018)

Test system: CD34+ cells
Test: SDF-1 transwell migration assay
Type: cell-based
Conditions: CD34+ cells treated 4 hours at 37° C. at 10 μM, washed; 50 ng/mL SDF1 in lower chamber, 2.5 hours; compared to DMSO control
Description: Transwell migration assays were performed using 96-well chemotaxis chambers, […] pore size polycarbonate membrane (Corning Inc., Corning, N.Y.) in accordance with manufacturer's instructions. Briefly, CD34^+ cells were then treated for 4 hours at 37° C. with 16,16-dimethyl PGE2 (dmPGE2), dmPGE2 and glucocorticoid, or DMSO control at a concentration of 10 μM in StemSpan® media (StemCell Technology, Vancouver, Canada). The cells were then washed by centrifugation (300 g for 10 minutes) and resuspended in transwell assay buffer (Phenol Red Free RPMI media (Mediatech), 0.5% lipid free BSA (Sigma-Aldrich) at a concentration of 40,000-60,000 cells/75 μl.
To test the duration of the treatment effects, one portion of treated cells was washed by centrifugation (300 g for 10 minutes) and resuspended in StemSpan® media for 4 hours at 37° C. without dmPGE2, glucocorticoids, or DMSO and then washed again by centrifugation (300 g for 10 minutes) and resuspended in transwell assay buffer (Phenol Red Free RPMI media (Mediatech), 0.5% lipid free BSA (Sigma-Aldrich) at a concentration of 40,000-60,000 cells/75 μl.
Seventy-five μl of cell suspension was added to the upper chamber of the plate, while 235 μl of transwell assay media containing 0 or 50 ng/ml SDF 1α (R&D system, Minneapolis, Minn.) was added to the bottom well. […]

SMILES: CCCCC(C)(C)[C@H](O)/C=C/[C@H]1[C@H](O)CC(=O)[C@@H]1C/C=C\CCCC(=O)O [dmPGE2, 16,16-dimethyl PGE2]
- SDF1-driven cell migration (% of cells added): increased SDF1-driven cell migration compared to the DMSO control
